In patent US20180265867A1, “NUCLEIC ACID MOLECULES WITH ENHANCED ACTIVITY” (priority 2015, published 2018):
d = 2'-deoxy (DNA); r = 2'-OH (RNA)

Legend:
Assay type in all cases: cell-based, human
[1] = system: GAPDH; assay: Western blot of GAPDH protein in MG63 cells; settings: MG63, 50 nM, at 48 h, no transfection reagent
Description: After 48 hours of transfection, cells were washed twice with ice-cold PBS and lysed in RIPA lysis buffer (50 mM Tris-HCl, pH 8.0, with 150 mM NaCl, 1.0% Igepal CA-630 (NP-40), 0.5% sodiumdeoxycholate, 0.1% SDS, and 1.0% protease inhibitor cocktail from SIGMA-ALDRICH®). Lysates were incubated on ice for 30 minutes and centrifuged at 10,000 rpm for 20 minutes to collect supernatant. Coomassie Plus—The Better Bradford Assay™ Reagent (Thermo Scientific) was used to measure protein concentrations. Thereafter, 20 μg of soluble protein was separated by SDS-PAGE and transferred to polyvinylidene difluoride membrane (Millipore). Primary antibodies against GAPDH (1:1000 dilution), β-catenin (1:1000 dilution; SIGMA-ALDRICH®), β-actin (1:1000; Cell Signaling Technology®) were used to probe the protein bands. Anti-Rabbit-HRP conjugated secondary antibodies (1:3000 dilution; R&D Systems®) were used to detect the primary antibodies, followed by the target protein visualization with EMD Millipore Immobilon™ Western Chemiluminescent HRP Substrate (ECL). […]
To further validate our results, we tested the gene knockdown efficiency of another gene CTNNB1 (β-catenin), which is expressed in MG63 cells. We performed a time course experiment (24, 48 and 72 h) by targeting CTNNB1 and GAPDH in MG63 cells and quantified the mRNA and protein levels using qRT-PCR and Western blot experiments respectively (FIG. 8).

[2] = system: MG63 and HOB cells; assay: Cell proliferation / toxicity by MTS assay; settings: 50 and 100 nM, 24 h post transfection
Description: Cell proliferation was assessed by MTS (3-(4,5-dimethylthiazol-2-yl)-5-(3-carboxymethoxyphenyl)-2-(4-sulfophenyl)-2H-tetrazolium, inner salt) reagent assay: MG63 cells were seeded at a density of 35 000 cells in 24-well culture plates, and cultured for 24 hours as mentioned above. Cells were transfected with 50 nM or 100 nM concentrations of cpRNA and negative control siRNAs with or without MATra-si, while control wells were left untreated. Each transfection experiment was performed in triplicate. Post-transfection, cells were incubated for 24 hours at 37° C. The viable cells were evaluated by MTS assay, using CellTiter 96®AQueousOne Solution Cell Proliferation Assay (Promega, USA) according to the manufacturer's protocol. The enzymatic reduction in MTS to formazan was quantified by an ELISA plate reader (Thermo Scientific) at 490 nm.
Thus, the role of siRNA topography on immune activation and cellular toxicity was investigated because increased RNA length has been reported to cause toxicity with increased interferon (IFN)-β expression. toxicity studies were performed using the MTS assay with two concentrations of GAPDH siRNA (50 and 100 nM) with different overhang lengths (dT2, dT5, and dT8) in MG63 and HOB cells and compared it with the scrambled siRNA sequence (FIG. 5).

[3] = system: GAPDH; assay: Carrier-free GAPDH knockdown in different cell types (HOB, HCT116, MG63) by RT-PCR
Description: Primary human osteoblast (HOB) cells isolated from human trabecular bone and keratinocytes and fibroblasts cells were isolated from skin tissue from healthy human donors. MG63 (human osteosarcoma cell line), HCT116 (human colon cancer cell line), HEK293 (human embryonic kidney 293 cells), C2C12 (mouse myoblast cell line) and MC3T3 (mouse osteoblast precursor cell line) cell lines were obtained from American Type Culture Collection, ATCC (Manassas, Va., USA). Cells were cultured until confluence was reached. The human cell experiments were approved by the local ethics committee (Ethical approval # Ups 03-561).
At 70% confluency, a day prior to transfection, the cells were seeded at a density of 35 000 cells in a 24-well cell culture plate to achieve 60-80% confluence at the day of transfection. Cell penetrating siRNAs (cpRNAs) of different lengths were transfected at 50 nM concentrations with Magnet Assisted Transfection (MATra-si) reagent for siRNAs (IBA GmbH, Göttingen, Germany) according to the manufacturers' protocols. […]
cDNA synthesis was performed in triplicate using total RNA reverse transcribed using High Capacity cDNA reverse transcription kit (Applied Biosystems, USA), with non-template control added to ensure a lack of signal in assay background. […] Data from samples with a Ct value equal to or below 35 were further analyzed. Samples were normalized relative to endogenous control and differences in cycle number thresholds were calculated using comparative quantitation 2^−ΔΔcT method (also called the ΔΔCT method), commonly used for analyzing siRNA induced gene knockdown efficiency.
The formulas used to calculate gene knockdown were as follows: First, the ΔCT was calculated as the mean cycle threshold for the target gene minus the mean cycle thresholds for the endogenous controls ACTB, each performed in triplicates: ΔCT=CT (target gene)−CT (endogenous control). Secondly, the ΔΔCT was calculated as the ΔCT of the target minus the ΔCT of negative control (NC): ΔΔCT=ΔCT (target)−ΔCT (NC). […]

| Substance | GAPDH protein level [1] | cytotoxicity (MTS assay) [2] | GAPDH gene knockdown in different cell types ([3]; 50 nM) | knockdown efficiency compared to canonical siRNA ([3]; HOB, HCT116 and MG63 cells) | RNAi activity in primary cells ([3]; primary cells) |
| --- | --- | --- | --- | --- | --- |
| dT5: GAPDH siRNA, sense SEQ ID NO: 3 with dT5 3′-overhang, antisense SEQ ID NO: 2 with dT2 (sense CCGAGCCACAUCGCUCAGATTTTT; antisense UCUGAGCGAUGUGGCUCGGTT; sense: sugars from the 5' end r19 d5, backbone not given here; antisense: sugars from the 5' end r19 d2, backbone not given here) | complete knockout | do not impose toxicity | 80% | 3-4 fold |  |
| dT2: Canonical GAPDH siRNA, sense SEQ ID NO: 1, antisense SEQ ID NO: 2, dTdT 3′-overhang on both strands (sense CCGAGCCACAUCGCUCAGATT; antisense UCUGAGCGAUGUGGCUCGGTT; sugars from the 5' end r19 d2, backbone not given here) [reference compound] |  | do not impose toxicity |  |  | only limited activity |
